pEC50: −log10 of the molar value. Read-outs that look alike come from different tables or passages of the source.
Legend:
[1] = Cytotoxicity assay in MT-4 cells; type: cell-based; conditions: human, uninfected MT-4 cells, 5 days, Cell Titer Glo; read-out: CC50
How it was run: (§1)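 Uninfected MT-4 cells were incubated with 1:3 serially diluted compound in RPMI/10% FBS for 5 days at 37° C. Viability was read by CellTiter-Glo luminescence, with 10 μM puromycin as the baseline cytotoxicity control. Values are the concentration giving a 50% decrease in luminescence, from sigmoidal dose-response fits.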

[2] = tested on: HIV-1 (IIIB); test: Antiviral assay in MT-4 cells; type: cell-based; conditions: HIV-1 IIIB infected MT-4 cells, 5 days, Cell Titer Glo, read-out: MT4 EC50
How it was run: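 MT-4 cells infected with a 1:250 dilution of HIV-1 IIIB stock were incubated with serially diluted (1:3) compound for 5 days at 37 °C. Viability read by Cell Titer Glo luminescence; EC50 is the concentration giving 50% decrease in signal, from sigmoidal dose-response fits.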

[3] = Monkey PK after single-dose intravenous infusion; type: in vivo, monkeys; conditions: cynomolgus, monkeys, single-dose intravenous infusion for 30 minutes, plasma, read-out: Cyno half-life (converted)
Method: Test compound PK was determined in monkeys (Labcorp, Madison, Wis.) following a single-dose intravenous infusion for 30 minutes. The dosing vehicle was 10% N-methylpyrrolidone; 50% polyethylene glycol 300 and 40% water (pH 8.3) for intravenous administration in monkeys. Serial blood samples were collected at predose, 0.25, 0.48 (before end of infusion), 0.58, 0.75, 1, 1.5, 2, 4, 8, 12, 24, 48, 72, 96, 120, 144, and 168 hours postdose (based on start of infusion) and plasma test compound concentrations were quantified using an LC-MS/MS method.
Nonclinical plasma samples were prepared by addition of 200 μl cold acetonitrile/internal standard solution to 96-well plates containing 50 μl aliquots of each plasma sample. After protein precipitation, each of the supernatants (50 μl) were transferred to clean 96-well plates and diluted with 450 μl of water. The sample injection volume was 2 μl. Samples were analyzed by a multiple reaction monitoring LC-MS/MS method. LC-MS system consisted of a Cohesive LX-2 multiplex with two identical DIONEX UltiMate 3000 RS pumps, Hypersil Gold C18 HPLC column (50×2.1 mm, […]; Thermo Fisher Scientific), and the ABSciex QTRAP5500 Mass Spectrometer LC-MS/MS system. Chromatography was performed using 0.1% formic acid and 1% isopropyl alcohol in aqueous solution (MP A), and 0.1% formic acid and 1% isopropyl alcohol in acetonitrile (MP B).
Plasma PK parameters for test compounds in monkeys were estimated via noncompartmental analysis using the software program Phoenix WinNonlin, version 6.3 (Pharsight Corporation, Mountain View, Calif.). The following plasma PK parameters were estimated in nonclinical species (as appropriate): observed peak plasma concentration (Cmax), time to reach Cmax (Tmax), last quantifiable plasma concentration (Clast), tin, time of Clast (Tlast), area under the plasma concentration-time curve (AUC) from time 0 to Clast (AUClast), AUC from time 0 to infinity (AUCinf), CL, mean residence time (MRT), and volume of distribution at steady state (Vss).

[4] = tested on: MT-4 cells; test: Cytotoxicity assay in MT-4 cells; type: cell-based
How it was run: as §1

[5] = tested on: pLai RLuc reporter virus; test: HIV MT-4 serum shift antiviral reporter assay; type: cell-based; conditions: for pEC50: 72 h, Renilla Glo; for EC50: Human immunodeficiency virus 1, 72 h
How it was run: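 MT-4 cells pre-infected with pLai RLuc virus for 2 h at 37 °C, then incubated 72 h at 37 °C with compound in medium (RPMI, 10% FBS) with or without 50% human serum; Renilla luminescence read. EC50 from sigmoidal fit; serum shift = EC50(HS/CCM)/EC50(CCM).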

[6] = Human immunodeficiency virus 1, IIIB, MT4, 120 h
[7] = uninfected MT-4 cells, 5 days, Cell Titer Glo, read-out: CC50
[8] = read-out: RLUC 50% HS, HS/CCM: 50% human serum
[9] = read-out: RLUC CCM, cell culture media (RPMI, 10% FBS)
[10] = read-out: RLUC CCM (nM), cell culture media (RPMI, 10% FBS), 72 h, Renilla Glo
[11] = HS/CCM: 50% human serum, read-out: RLUC 50% HS
[12] = cell culture media (RPMI, 10% FBS), read-out: RLUC CCM
[13] = read-out: RLUC 50% HS (nM), HS/CCM: 50% human serum, 72 h, Renilla Glo

SMILES | CC50 [4, 7] | pEC50 [2] | pEC50 [5, 11] | pEC50 [5, 12] | other results
C[C@H]1C=C[C@@H](CF)N2CN1C(=O)c1c(O)c(=O)c(C(=O)NCc3ccc(F)cc3F)cn12 [Example C44, (2S,5S)—N-(2,4-difluorobenzyl)-2-(fluoromethyl)-8-hydroxy-5-methyl-7,9-dioxo-2,5,7,9-tetrahydro-1,6-methanopyrido[1,2-b][1,2,5]triazonine-10-carboxamide] |  |  |  |  | CC50 at 5 days [1]: 15000 nM; pEC50 [2, 6]: 8.92; half-life [3]: 29 h
C[C@@H]1C=C[C@H](C)N2CN1n1cc(C(=O)NCc3ccc(F)c(Cl)c3F)c(=O)c(O)c1C2=O [Example C63, (1S,2R,5S)—N-(3-chloro-2,4-difluorobenzyl)-8-hydroxy-2,5-dimethyl-7,9-dioxo-2,5,7,9-tetrahydro-1,6-methanopyrido[1,2-b][1,2,5]triazonine-10-carboxamide] |  |  |  |  | half-life [3]: 110 h
C[C@H]1CC[C@H](C)N2CN1C(=O)c1c(O)c(=O)c(C(=O)NCc3c(F)cc(F)cc3F)cn12 [Example C66, (1R,2S,5S)-8-hydroxy-2,5-dimethyl-7,9-dioxo-N-(2,4,6-trifluorobenzyl)-2,3,4,5,7,9-hexahydro-1,6-methanopyrido[1,2-b][1,2,5]triazonine-10-carboxamide] | 10400 nM | 8.85 |  |  | pEC50 [5, 8]: 6.75; pEC50 [5, 9]: 9.30
C[C@@H]1C=C[C@@H](C)N2CN1C(=O)c1c(O)c(=O)c(C(=O)NCc3ccc(F)cc3F)cn12 [Example C68, (1R,2R,5R)—N-(2,4-difluorobenzyl)-8-hydroxy-2,5-dimethyl-7,9-dioxo-2,5,7,9-tetrahydro-1,6-methanopyrido[1,2-b][1,2,5]triazonine-10-carboxamide] | 17300 nM |  |  |  | EC50 [5, 10]: 0.82 nM; pEC50 [5, 8]: 6.54; pEC50 [2, 6]: 8.80
C[C@@H]1C=C[C@@H](C)N2CN1C(=O)c1c(O)c(=O)c(C(=O)NCc3ccc(F)cc3F)cn12 [Example C69, (1S,2R,5R)—N-(2,4-difluorobenzyl)-8-hydroxy-2,5-dimethyl-7,9-dioxo-2,5,7,9-tetrahydro-1,6-methanopyrido[1,2-b][1,2,5]triazonine-10-carboxamide] | 38900 nM | 8.82 |  |  | pEC50 [5, 8]: 6.84; pEC50 [5, 9]: 9.26
C[C@H]1CC[C@@H](C(F)F)N2CN1C(=O)c1c(O)c(=O)c(C(=O)NCc3c(F)cc(F)cc3F)cn12 [Example C78, (1S,2S,5S)-2-(difluoromethyl)-8-hydroxy-5-methyl-7,9-dioxo-N-(2,4,6-trifluorobenzyl)-2,3,4,5,7,9-hexahydro-1,6-methanopyrido[1,2-b][1,2,5]triazonine-10-carboxamide] | 13700 nM | 8.80 | 5.98 | 9.38 | 
COC[C@@H]1C=C[C@H](C)N2CN1n1cc(C(=O)NCc3c(F)cc(F)cc3F)c(=O)c(O)c1C2=O [Example C79, (1S,2S,5S)-8-hydroxy-2-(methoxymethyl)-5-methyl-7,9-dioxo-N-(2,4,6-trifluorobenzyl)-2,5,7,9-tetrahydro-1,6-methanopyrido[1,2-b][1,2,5]triazonine-10-carboxamide] | 50000 nM |  |  |  | EC50 [5, 13]: 638 nM; EC50 [5, 10]: 1.81 nM; pEC50 [2, 6]: 8.34
C[C@H]1C=C[C@H](CF)N2CN1C(=O)c1c(O)c(=O)c(C(=O)NCc3c(F)cc(F)cc3F)cn12 [Example C80, (1R,2R,5S)-2-(fluoromethyl)-8-hydroxy-5-methyl-7,9-dioxo-N-(2,4,6-trifluorobenzyl)-2,5,7,9-tetrahydro-1,6-methanopyrido[1,2-b][1,2,5]triazonine-10-carboxamide] |  | 8.09 | 6.09 | 8.91 | CC50 [4]: 25400 nM
C[C@H]1C=C[C@]2(CCOC2)N2CN1C(=O)c1c(O)c(=O)c(C(=O)NCc3c(F)cc(F)cc3F)cn12 [Example C84, (1′S,3S,5′S)-8′-hydroxy-5′-methyl-7′,9′-dioxo-N-(2,4,6-trifluorobenzyl)-4,5,7′,9′-tetrahydro-2H,5′H-spiro[furan-3,2′-[1,6]methanopyrido[1,2-b][1,2,5]triazonine]-10′-carboxamide] | 20500 nM | 9.22 | 7.60 | 9.59 | 
C[C@@H]1[C@H]2C[C@H]2[C@H](C)N2CN1n1cc(C(=O)NCc3c(F)cc(F)cc3F)c(=O)c(O)c1C2=O [Example C89, (1aS,2R,3R,11S,11aR)-8-hydroxy-2,11-dimethyl-7,9-dioxo-N-(2,4,6-trifluorobenzyl)-1a,2,7,9,11,11a-hexahydro-1H-3,10-methanocyclopropa[g]pyrido[1,2-b][1,2,5]triazonine-6-carboxamide] | 37200 nM | 8.96 | 7.44 | 8.96 | 
C[C@H]1C=CC(C)(C)N2CN1n1cc(C(=O)NCc3ccc(F)cc3F)c(=O)c(O)c1C2=O [Example C91, (1R,2S)—N-(2,4-difluorobenzyl)-8-hydroxy-2,5,5-trimethyl-7,9-dioxo-2,5,7,9-tetrahydro-1,6-methanopyrido[1,2-b][1,2,5]triazonine-10-carboxamide] | 31000 nM | 8.72 | 6.71 | 9.17 | 
C[C@H]1C=CC(C)(C)N2CN1n1cc(C(=O)NCc3ccc(F)cc3F)c(=O)c(O)c1C2=O [Example C92, (1S,2S)—N-(2,4-difluorobenzyl)-8-hydroxy-2,5,5-trimethyl-7,9-dioxo-2,5,7,9-tetrahydro-1,6-methanopyrido[1,2-b][1,2,5]triazonine-10-carboxamide] | 17500 nM | 8.82 | 6.61 | 9.17 | 
C[C@@H]1CCC(C)(C)N2CN1n1cc(C(=O)NCc3ccc(F)cc3F)c(=O)c(O)c1C2=O [Example C93, (1S,2R)—N-(2,4-difluorobenzyl)-8-hydroxy-2,5,5-trimethyl-7,9-dioxo-2,3,4,5,7,9-hexahydro-1,6-methanopyrido[1,2-b][1,2,5]triazonine-10-carboxamide] | 50000 nM | 7.77 | 7.01 | 8.94 | 
C[C@H]1CCC(C)(C)N2CN1n1cc(C(=O)NCc3ccc(F)cc3F)c(=O)c(O)c1C2=O [Example C94, (1R,2S)—N-(2,4-difluorobenzyl)-8-hydroxy-2,5,5-trimethyl-7,9-dioxo-2,3,4,5,7,9-hexahydro-1,6-methanopyrido[1,2-b][1,2,5]triazonine-10-carboxamide] | 50000 nM | 7.60 | 6.44 | 8.21 | 
C[C@H]1CCC(C)(C)N2CN1n1cc(C(=O)NCc3ccc(F)cc3F)c(=O)c(O)c1C2=O [Example C95, (1S,2S)—N-(2,4-difluorobenzyl)-8-hydroxy-2,5,5-trimethyl-7,9-dioxo-2,3,4,5,7,9-hexahydro-1,6-methanopyrido[1,2-b][1,2,5]triazonine-10-carboxamide] | 50000 nM |  |  |  | EC50 [5, 13]: 461 nM; EC50 [5, 10]: 2.52 nM; pEC50 [2, 6]: 7.91
O=C(NCc1c(F)cc(F)cc1F)c1cn2c(c(O)c1=O)C(=O)N1CCCCN2C1 [Example C108, (1R)-8-hydroxy-7,9-dioxo-N-(2,4,6-trifluorobenzyl)-2,3,4,5,7,9-hexahydro-1,6-methanopyrido[1,2-b][1,2,5]triazonine-10-carboxamide] | 22900 nM | 8.48 | 6.68 | 9.01 | 

From patent publication US11613546B2, “Substituted pyridotriazine compounds and uses thereof” (Gilead Sciences, Inc., priority 2021, dated 2023)
